Experimental data taken from US8952024B2, “Herbicidal pyrimidone derivatives” (E I du Pont de Nemours and Company, priority 2009, dated 2015).

Assays:
Assay type in all cases: in vivo
[1] = system: winter barley (Hordeum vulgare); experiment: Test B postemergence plant response; conditions: Postemergence
How it was run: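 Plants grown in peat/vermiculite medium were sprayed postemergence at 2–18 cm height (1- to 4-leaf stage). After 13–15 days in the greenhouse, response was rated visually against untreated controls on a 0–100 scale (0 no effect, 100 complete control).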

rice (Oryza sativa) = experiment: Test B flooded paddy test; conditions: for Plant response rating, Rice: Flood (flooded paddy test), 13 to 15 days
How it was run: (§1)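 Visual scores run from 0 (no effect) to 100 (complete control), assigned by comparison with controls 13 to 15 days after treatment. Test compounds went straight into water standing 3 cm above the soil, around plants at the 2-leaf stage kept in a greenhouse.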

[2] = system: umbrella sedge (Cyperus difformis); experiment: Test B flooded paddy test; conditions: for Plant response rating, Sedge, Umbrella: Flood (flooded paddy test), 13 to 15 days
How it was run: as §1

[3] = system: ducksalad (Heteranthera limosa); experiment: Test B flooded paddy test; conditions: for Plant response rating, Ducksalad: Flood (flooded paddy test), 13 to 15 days
How it was run: as §1

[4] = system: barnyardgrass (Echinochloa crus-galli); experiment: Test B flooded paddy test; conditions: for Plant response rating, Barnyardgrass: Flood (flooded paddy test), 13 to 15 days
How it was run: as §1

[5] = system: large crabgrass (Digitaria sanguinalis); experiment: Test A pre-/postemergence plant response
How it was run: (§2)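 Visual injury rating on a 0–100 scale (0 = no effect, 100 = complete control) was made versus untreated controls after about ten days in the greenhouse. Compounds, formulated in a non-phytotoxic solvent mix containing surfactant, were sprayed preemergence onto loam/sand soil and postemergence onto one- to two-leaf plants.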

[6] = system: velvetleaf (Abutilon theophrasti); experiment: Test A pre-/postemergence plant response
How it was run: as §2

[7] = system: pigweed (Amaranthus retroflexus); experiment: Test A pre-/postemergence plant response
How it was run: as §2

corn (Zea mays) = experiment: Test A pre-/postemergence plant response
How it was run: as §2

[8] = system: morningglory (Ipomoea spp.); experiment: Test A pre-/postemergence plant response
How it was run: as §2

[9] = system: wheat (Triticum aestivum); experiment: Test A pre-/postemergence plant response
How it was run: as §2

[10] = system: barnyardgrass (Echinochloa crus-galli); experiment: Test A pre-/postemergence plant response
How it was run: as §2

[11] = system: giant foxtail (Setaria faberii); experiment: Test A pre-/postemergence plant response
How it was run: as §2

[12] = 250 g ai/ha, flooded paddy test, visual rating on 0 to 100 scale (0 no effect, 100 complete control) after 13 to 15 days
[13] = 62 g ai/ha, scale of 0 to 100 where 0 is no effect and 100 is complete control
[14] = 125 g ai/ha, scale 0 to 100, 0 is no effect, 100 is complete control
[15] = Flood, 31 g ai/ha, scale 0 to 100 (0 no effect, 100 complete control)
[16] = Postemergence, 125 g ai/ha, 0 to 100 scale where 0 is no effect and 100 is complete control
[17] = Postemergence, 500 g ai/ha, visual injury, 0 to 100 scale (0 no effect, 100 complete control), approx. ten days
[18] = Preemergence, 125 g ai/ha, 0 to 100 scale, 0 = no effect, 100 = complete control
[19] = Preemergence, 500 g ai/ha, 0 to 100 scale, 0 = no effect, 100 = complete control

Question: How did the “Plant response rating, Barley” value ([1]; 31 g ai/ha, 0 to 100 scale (0 no effect, 100 complete control)) turn out when `O=C1CCCC(O)=C1C(=O)c1cnc(-c2ccc(F)cc2)n(C2CCCCC2)c1=O` [Compound 197] was run?
Answer: The value was 0.

Question: What about the “Plant response rating, Barley” value ([1]; 62 g ai/ha, scale 0 to 100 (0 no effect, 100 complete control)) of the same compound?
Answer: The value was 5.

Question: And the “Plant response rating, Barley” value ([1]; 125 g ai/ha, scale 0 to 100 (0 no effect, 100 complete control))?
Answer: The value was 10.

Question: What about the “Plant response rating, Barley” value ([1]; 250 g ai/ha, scale 0 to 100 (0 no effect, 100 complete control), 13 to 15 days) of the same compound?
Answer: Its value is 40.

Question: And the “Plant response rating, Flood, Rice” value (rice (Oryza sativa); [12])?
Answer: Its value is 45.

Question: And the “Plant response rating, Rice” value (rice (Oryza sativa); [13])?
Answer: The value was 0.

Question: And the “Plant response rating, Rice” value (rice (Oryza sativa); [14])?
Answer: The value was 30.

Question: And the “Rice plant response rating” value (rice (Oryza sativa); [15])?
Answer: Its value is 0.

Question: What about the “Plant response rating, Flood, Sedge, Umbrella” value [2, 12] of the same compound?
Answer: Its value is 85.

Question: And the “Plant response rating, Sedge, Umbrella” value [2, 13]?
Answer: The value was 70.

Question: And the “Plant response rating, Sedge, Umbrella” value [2, 14]?
Answer: The value was 75.

Question: What about the “Sedge, Umbrella plant response rating” value [2, 15] of the same compound?
Answer: The value was 65.

Question: What about the “Plant response rating, Flood, Ducksalad” value [3, 12] of the same compound?
Answer: The value was 85.

Question: What about the “Plant response rating, Ducksalad” value [3, 13] of the same compound?
Answer: Its value is 65.

Question: What about the “Plant response rating, Ducksalad” value [3, 14] of the same compound?
Answer: Its value is 80.

Question: What about the “Ducksalad plant response rating” value [3, 15] of the same compound?
Answer: Its value is 65.

Question: What about the “Plant response rating, Flood, Barnyardgrass” value [4, 12] of the same compound?
Answer: The value was 30.

Question: And the “Plant response rating, Barnyardgrass” value [4, 13]?
Answer: The value was 0.

Question: What about the “Plant response rating, Barnyardgrass” value [4, 14] of the same compound?
Answer: The value was 20.

Question: And the “Barnyardgrass plant response rating” value [4, 15]?
Answer: Its value is 0.

Question: And the “Plant response rating, Crabgrass, Large” value [5, 16]?
Answer: The value was 70.

Question: And the “Crabgrass, Large plant response rating” value [5, 17]?
Answer: The value was 100.

Question: And the “Plant response rating, Crabgrass, Large” value [5, 18]?
Answer: The value was 0.

Question: What about the “Plant response rating, Crabgrass, Large” value [5, 19] of the same compound?
Answer: Its value is 60.

Question: And the “Plant response rating, Velvetleaf” value [6, 16]?
Answer: Its value is 100.

Question: What about the “Velvetleaf plant response rating” value [6, 17] of the same compound?
Answer: Its value is 100.

Question: What about the “Plant response rating, Velvetleaf” value [6, 18] of the same compound?
Answer: Its value is 40.

Question: What about the “Plant response rating, Velvetleaf” value [6, 19] of the same compound?
Answer: Its value is 90.

Question: And the “Plant response rating, Pigweed” value [7, 16]?
Answer: The value was 100.

Question: And the “Pigweed plant response rating” value [7, 17]?
Answer: Its value is 100.

Question: And the “Plant response rating, Pigweed” value [7, 18]?
Answer: The value was 20.

Question: What about the “Plant response rating, Pigweed” value [7, 19] of the same compound?
Answer: Its value is 100.

Question: What about the “Plant response rating, Corn” value (corn (Zea mays); [16]) of the same compound?
Answer: The value was 20.

Question: What about the “Corn plant response rating” value (corn (Zea mays); [17]) of the same compound?
Answer: The value was 50.

Question: And the “Plant response rating, Corn” value (corn (Zea mays); [18])?
Answer: Its value is 0.

Question: What about the “Plant response rating, Corn” value (corn (Zea mays); [19]) of the same compound?
Answer: The value was 30.

Question: And the “Plant response rating, Morningglory” value [8, 16]?
Answer: Its value is 100.

Question: And the “Morningglory plant response rating” value [8, 17]?
Answer: Its value is 100.

Question: What about the “Plant response rating, Morningglory” value [8, 18] of the same compound?
Answer: The value was 0.

Question: And the “Plant response rating, Morningglory” value [8, 19]?
Answer: Its value is 60.

Question: What about the “Plant response rating, Wheat” value [9, 16] of the same compound?
Answer: The value was 0.

Question: What about the “Wheat plant response rating” value [9, 17] of the same compound?
Answer: The value was 0.

Question: What about the “Plant response rating, Wheat” value [9, 18] of the same compound?
Answer: Its value is 0.

Question: What about the “Plant response rating, Wheat” value [9, 19] of the same compound?
Answer: The value was 20.

Question: And the “Plant response rating, Barnyardgrass” value [10, 16]?
Answer: The value was 80.

Question: And the “Barnyardgrass plant response rating” value [10, 17]?
Answer: Its value is 100.

Question: And the “Plant response rating, Barnyardgrass” value [10, 18]?
Answer: Its value is 0.

Question: What about the “Plant response rating, Barnyardgrass” value [10, 19] of the same compound?
Answer: The value was 40.

Question: What about the “Plant response rating, Foxtail, Giant” value [11, 16] of the same compound?
Answer: The value was 80.

Question: And the “Foxtail, Giant plant response rating” value [11, 17]?
Answer: Its value is 100.

Question: What about the “Plant response rating, Foxtail, Giant” value [11, 18] of the same compound?
Answer: The value was 0.

Question: What about the “Plant response rating, Foxtail, Giant” value [11, 19] of the same compound?
Answer: The value was 50.
